# Measured values reported in patent US20250313555A1, “2-SUBSTITUTED THIAZOLE AND BENZOTHIAZOLE COMPOSITIONS AND METHODS AS DUX4 INHIBITORS” (ALTAY THERAPEUTICS, INC., priority 2022, published 2025).
# Columns and labels:
# Type in all cases: cell-based
# [1] = Cell cytotoxicity 50 assay (CC50), MB200 cells, cell titer glo; conditions: human
# Summary of the method: (§1)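 MB200 cells were seeded at 10 k/well in F10 medium with bFGF, 15% FBS and dexamethasone. Cells were exposed to serially diluted compound (from 10 mM stock) in triplicate for 72 h at 37 °C. Viability was read by CellTiter-Glo luminescence and CC50 was fitted.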
# [2] = Cell cytotoxicity 50 assay (CC50), HEK cells; conditions: human
# Summary of the method: (§2)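 Starting from a 10 mM drug solution, serial dilutions were made in medium and added onto HEK cells, which were then incubated 72 h at 37 °C. Viability was read as CellTiter-Glo luminescence after 5 min, and CC50 was obtained by curve fitting.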
# MBD3L2 RNA = test: RNA isolation and qPCR to determine MBD3L2 RNA levels in FSHD cells; conditions: 48 hrs
# Summary of the method: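 FSHD cells were treated one day after seeding with a DUX4 inhibitor (11 μM or 3.6 μM) for 48 h. Total RNA was DNase-treated and reverse-transcribed with random hexamers and M-MLV. MBD3L2 was quantified by SYBR Green qPCR in triplicate against EEF1A as the reference gene.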
# MB200 cells = test: Cell cytotoxicity 50 assay (CC50), MB200 cells, cell titer glo; conditions: 72 h
# Summary of the method: as §1
# HEK = test: Cell cytotoxicity 50 assay (CC50), HEK cells
# Summary of the method: as §2
Compound,CC50 at 72 h [1],CC50 at 72 h [2],qPCR MBD3L2 Inhib at 11 µM (MBD3L2 RNA),CC50 (MB200 cells),CC50 (HEK)
O=C(CCCN1C(=O)CCC1=O)N[C@H]1C[C@@H](c2nc3ccccc3s2)C1 [Compound 97],> 10 µM,> 10 µM,YES,–,–
O=C(CCCN1C(=O)CCC1=O)NC1CCCC1c1nc2ccccc2s1 (stereo not drawn) [Compound 92],> 10 µM,> 10 µM,YES,–,–
CC(=O)NCCCC(=O)N[C@H]1CC[C@@H](Cc2nc3ccccc3s2)CC1 [Compound 171],> 10 µM,> 10 µM,YES,–,–
O=C(CCC1CCC(=O)N1)Nc1ccc(Cc2nc3ccccc3s2)cc1 (stereo not drawn) [Compound 178],> 10 µM,> 10 µM,YES,–,–
CC(=O)NCCCC(=O)N[C@H]1C[C@@H](c2nc3ccccc3s2)C1 [Compound 113],> 10 µM,> 10 µM,YES,–,–
CN(C(=O)CCCN1C(=O)CCC1=O)c1ccc(-c2nc3cc(F)ccc3s2)cc1 [Compound 144],> 10 µM,> 10 µM,YES,–,–
CC(=O)N[C@@H]1CC[C@@H](C(=O)Nc2nc3ccccc3s2)C1 [Compound 185],> 10 µM,> 10 µM,YES,–,–
CC(=O)NCCCC(=O)Nc1cccc(-c2nc3ccccc3s2)c1 [Compound 71],> 10 µM,> 10 µM,YES,–,–
CC(=O)NCCCC(=O)N[C@H]1CC[C@H](c2nc3ccccc3s2)C1 [Compound 115],> 10 µM,> 10 µM,YES,–,–
CC(=O)NCCCNC(=O)c1cc(C#N)cc(-c2nc3cc(F)ccc3s2)c1 [Compound 188],> 10 µM,> 10 µM,YES,–,–
O=C(CCCN1C(=O)CCC1=O)N[C@H]1CC[C@H](c2nc3ccccc3s2)C1 [Compound 161],–,–,YES,> 10 µM,> 10 µM
CC(=O)N[C@H]1CC[C@@H](C(=O)Nc2nc3ccccc3s2)C1 [Compound 183],> 10 µM,> 10 µM,YES,–,–
O=C(CCCc1cnco1)Nc1ccc(Cc2nc3ccccc3s2)cc1 [Compound 66],> 10 µM,> 10 µM,YES,–,–
O=C(CCCN1C(=O)CCC1=O)NC1CC(c2nc3ccccc3s2)C1 (stereo not drawn) [Compound 89],> 10 µM,> 10 µM,YES,–,–
C=C(C)NCCC(=C)Nc1cc(C)cc(Cc2nc3ccccc3s2)c1 [Compound 120],> 10 µM,> 10 µM,YES,–,–
O=C(CCCN1C(=O)CCC1=O)NCCCc1nc2ccccc2s1 [Compound 91],> 10 µM,> 10 µM,YES,–,–
CC(=O)N[C@@H]1CC[C@H](C(=O)Nc2nc3ccccc3s2)C1 [Compound 182],> 10 µM,> 10 µM,YES,–,–
O=C(CCCN1C(=O)CCC1=O)NC1CCC(Cc2nc3ccccc3s2)C1 (stereo not drawn) [Compound 158],> 10 µM,> 10 µM,YES,–,–
O=C(CCCN1CCCC1=O)NCCCc1nc2ccccc2s1 [Compound 118],> 10 µM,> 10 µM,YES,–,–
O=C(CCN1CCCC1=O)Nc1ccc(Cc2nc3ccccc3s2)cc1 [Compound 8],> 10 µM,> 10 µM,YES,–,–
CC(=O)NCCCC(=O)Nc1nc(-c2ccccc2)cs1 [Compound 126],> 10 µM,> 10 µM,YES,–,–
O=C(CCCc1cccnc1)N[C@H]1CC[C@H](c2nc3ccccc3s2)CC1 [Compound 164],> 10 µM,> 10 µM,YES,–,–
CC(=O)NCCCC(=O)Nc1cc(C)cc(-c2nc3ccccc3s2)c1 [Compound 72],> 10 µM,> 10 µM,YES,–,–
O=C(CCCN1C(=O)CCC1=O)Nc1nc2ccccc2s1 [Compound 108],–,–,YES,> 10 µM,> 10 µM
O=C(CCCN1CCCC1=O)NC1CCCC1c1nc2ccccc2s1 (stereo not drawn) [Compound 117],> 10 µM,> 10 µM,YES,–,–
O=C(Cc1ccc(-c2nc3ccccc3s2)cc1)NCCN1CCCC1=O [Compound 119],> 10 µM,> 10 µM,YES,–,–
CC(=O)NCCCC(=O)N[C@H]1C[C@H](c2nc3ccccc3s2)C1 [Compound 112],> 10 µM,> 10 µM,YES,–,–

Compound,CC50 at 72 h [1],CC50 at 72 h [2],qPCR MBD3L2 Inhib at 11 µM (MBD3L2 RNA),CC50 (MB200 cells),CC50 (HEK)
CC(=O)NCCCNC(=O)C12CCC(c3nc4ccccc4s3)(CC1)CC2 [Compound 173],> 10 µM,> 10 µM,YES,–,–
O=C(NCCN1C(=O)CCC1=O)c1ccc(-c2nc3ccccc3s2)cc1 [Compound 22],> 10 µM,> 10 µM,YES,–,–
CC(=O)NCCCC(=O)Nc1nc2ccccc2s1 [Compound 107],> 10 µM,> 10 µM,YES,–,–
CC(=O)NC1CCC(C(=O)N[C@H]2CC[C@H](c3nc4ccccc4s3)CC2)C1 (stereo partly drawn) [Compound 134],> 10 µM,> 10 µM,YES,–,–
CN(C(=O)CCC1CCC(=O)N1)c1ccc(-c2nc3ccccc3s2)cc1 (stereo not drawn) [Compound 177],> 10 µM,> 10 µM,YES,–,–
O=C(CCCc1cccnc1)N[C@H]1CC[C@@H](c2nc3ccccc3s2)CC1 [Compound 163],> 10 µM,> 10 µM,YES,–,–
CC(=O)NCCCC(=O)N[C@H]1CC[C@H](Cc2nc3ccccc3s2)CC1 [Compound 172],> 10 µM,> 10 µM,YES,–,–
O=C(CCCN1C(=O)CCC1=O)N[C@@H]1CC[C@@H](c2nc3ccccc3s2)C1 [Compound 162],> 10 µM,> 10 µM,YES,–,–
CC(=O)NCCCC(=O)NC1CCC(c2nc3ccccc3s2)CC1 (stereo not drawn) [Compound 28],> 10 µM,> 10 µM,YES,–,–
CC(=O)NCCCC(=O)Nc1cc(Cl)cc(-c2nc3ccccc3s2)c1 [Compound 101],> 10 µM,> 10 µM,YES,–,–
CC(=O)NCCCNC(=O)c1ccc(-c2nc3ccccc3s2)o1 [Compound 149],> 10 µM,> 10 µM,YES,–,–
O=C(CCCN1C(=O)CCC1=O)NC1CCC(c2nc3ccccc3s2)C1 (stereo not drawn) [Compound 90],> 10 µM,> 10 µM,YES,–,–
CC(C)(NC(=O)CCCN1CCCC1=O)c1ccc(-c2nc3ccccc3s2)cc1 [Compound 110],> 10 µM,> 10 µM,YES,–,–
O=C(CCCc1cccnc1)NC1CCC(c2nc3ccccc3s2)C1 (stereo not drawn) [Compound 157],> 10 µM,> 10 µM,YES,–,–
O=C(CCC1CCC(=O)N1)Nc1ccc(-c2nc3ccccc3s2)o1 (stereo not drawn) [Compound 179],> 10 µM,> 10 µM,YES,–,–
O=C(NCCCN1C(=O)CCC1=O)c1ccc(-c2nc3ccccc3s2)cc1 [Compound 7],> 10 µM,> 10 µM,YES,–,–
CC(=O)NCCCC(=O)N[C@@H]1CC[C@H](c2nc3ccccc3s2)C1 [Compound 114],> 10 µM,> 10 µM,YES,–,–
O=C(CCCCN1C(=O)CCC1=O)N[C@H]1CC[C@@H](c2nc3ccccc3s2)CC1 [Compound 151],> 10 µM,> 10 µM,YES,–,–
CC(=O)NCCCC(=O)NCCCc1nc2ccccc2s1 [Compound 106],> 10 µM,> 10 µM,YES,–,–
CC(=O)CCCCC(=O)Nc1ccc(-c2nccs2)cc1 [Compound 23],> 10 µM,> 10 µM,YES,–,–
CC(=O)NCCCc1nc(CCCC(=O)Nc2ccc(-c3nc4cc(F)ccc4s3)cc2)co1 [Compound 138],> 10 µM,1 to 10 µM,YES,–,–
CC(=O)NCCCC(=O)Nc1cc(Cl)cc(-c2nc3cc(F)ccc3s2)c1 [Compound 102],> 10 µM,> 10 µM,YES,–,–
CC(=O)NC1CCC(C(=O)Nc2nc3ccccc3s2)C1 (stereo not drawn) [Compound 131],> 10 µM,> 10 µM,YES,–,–
CN(C(=O)CCCN1C(=O)CCC1=O)c1ccc(Cc2nc3ccccc3s2)cc1 [Compound 169],> 10 µM,> 10 µM,YES,–,–
CC(=O)NCCCC(=O)Nc1ccc(-c2nccs2)cc1 [Compound 70],> 10 µM,> 10 µM,YES,–,–
O=C(NCCc1cncnc1)c1ccc(-c2nc3ccccc3s2)cc1 [Compound 11],> 10 µM,> 10 µM,YES,–,–
